These are literature values, as cited in publication PMC12580772, “A First-in-Human Study of ATM Inhibitor Lartesertib as Monotherapy in Patients with Advanced Solid Tumors” (Clinical Cancer Research, 2025).

The series concerns patient-derived xenograft models of triple-negative breast cancer. The arrangement: method as in PMID 37079339. The settings on record: single-agent gartisertib; cited from earlier work.

Turning to `Nc1nn2cc(F)cnc2c1C(=O)Nc1cncc(F)c1N1CCC(C(=O)N2CCN(C3COC3)CC2)CC1` [gartisertib, reference compound], the Tumor control rate was 27%.
